From article PMC11231610, “Fatty acid binding to the human transport proteins FABP3, FABP4, and FABP5 from a Ligand’s perspective” (The Journal of Biological Chemistry, 2024)
“And” between values parts separate entries of the source, which are not always exact repeats. Equal values may be shown once. Read-outs that look alike come from different tables or passages of the source.

How the values were obtained:
Assay type in all cases: binding
FABP4 = target: T1, FABP4 (Homo sapiens, UniProt P15090); assay: CW EPR spectra and spectral simulations of spin-probed fatty acids with FABP4
T1 construct: purchased Sigma Aldrich
Method: (§1) For a more in-depth view of the binding mechanism, CW EPR spectra of 5/16-DSA with concentration series of the FABPs were measured and simulated. […] Equal concentrations of 20 μM of each spin probe (5- and 16-DSA) were mixed with FABP concentrations of 0 to 200 μM, increasing the resulting ligand/protein ratio in the samples stepwise from 1/0 to 1/10.
(§2) To analyze the spectra quantitatively, subsequent EPR spectral simulations were performed (Fig. 2, B and C). […] For a better understanding, a first interpretation of these components is given at this point. The rotational dynamics are thought to be indirectly proportional to the strength of intermolecular interactions between fatty acid and FABP. Therefore, they are indicative of the binding state of the fatty acids. Higher rotational correlation times signalize lower ligand dynamics and stronger interactions with the protein. […] This exchange broadening can only occur if radicals are located very close distance each other, colliding with each other, leading to partial overlap of spin-bearing orbitals.
(§3) The fractions (weights) Φx of the spectral components were extracted from the EPR simulations of the concentration series and were used to calculate the concentrations of all components with Eq (1). in Figure 3. This was performed for the intermediately and strongly bound components, as well as for their sum, called totally bound 5/16-DSA, to construct binding curves for all FABPs and spin probes. […] Different fit functions were applied to the curves for a better qualitative and quantitative analysis.

FABP5 [1] = target: T2, FABP5 (Homo sapiens, UniProt Q01469); assay: DHA displacement of 16-DSA from FABP5 by CW EPR; settings: FABP5/16-DSA/DHA 20/20/0, before DHA addition
T2 construct: purchased Sigma Aldrich
Description: In a second addition during revision, we were curious about the question of whether our model ligands that bind with medium affinity to the FABP binding pocket will be displaced when we add a native ligand with higher affinity and whether we could detect this displacement with our CW EPR setup. The native ligand DHA was chosen for this displacement analysis since it is well-known to bind with high affinity to FABP5 ([26]). DHA was pre-dissolved in ethanol, diluted into buffer, and mixed with FABP5 and 16-DSA. […] Samples with FABP5/16-DSA/DHA ratios 20/20/0, 20/20/5, 20/20/10, 20/20/20, 20/20/50, and 20/20/100 were prepared with 5 min incubation time in between 16-DSA and DHA addition. […] We assume that the well-known high binding affinity of DHA refers to the state of strong binding within the pocket. […] Instead, a dynamic exchange of ligands seems to occur, as we consistently observe it with albumins from different species. However, this part opens the way to other future competitive binding assays via CW EPR spectroscopy, e.g., with pharmaceuticals that bind to FABPs.
CW EPR spectroscopic measurements were performed at X-band frequencies (∼9.4 GHz) with a benchtop spectrometer Magnettech MS-5000 (Freiberg Instruments GmbH, now Bruker Biospin). The samples were prepared in low-binding PCR tubes (250 μl). Protein and 5/16-DSA solutions were mixed with HEPES/NaCl buffer at pH 7.5, to obtain samples with a constant 5/16-DSA concentration of 20 μM and varying FABP concentrations of 200, 100, 50, 35, 25, 20, 15, 10 and 5 μM. After an incubation time of 20 min, the samples were transferred into glass capillaries, which were sealed with ‘Critoseal’. At first, solutions with 20 μM of 5/16-DSA were measured as references at 37 °C. The concentration series of FABP with 20 μM 5/16-DSA were measured at 37 °C, directly after preparation. Afterward, the sample capillaries were stored at 4 °C, and subsequent temperature-dependent measurements were performed. […]

FABP5 [2] = target: T2, FABP5; assay: CW EPR spectra and spectral simulations of spin-probed fatty acids with FABP5; settings: for increase of intermediately bound component: FABPx/16-DSA 20/20 μM
Method: as §1, §2, §3

FABP3 = target: T3, FABP3 (Homo sapiens, UniProt P05413); assay: CW EPR spectra and spectral simulations of spin-probed fatty acids with FABP3; settings: for increase of intermediately bound component: FABPx/16-DSA 20/20 μM
T3 construct: purchased Sigma Aldrich
Method: as §1, §2, §3

[3] = 37 °C, 20 μM spin probe, EPR binding curve, read-out: KD,T,75′ (fit), apparent KD read at 75% totally bound
[4] = Hill fit of EPR binding curve, totally bound, 37 °C
[5] = Hill fit, totally bound (T), y = bound 5/16-DSA
[6] = read-out: KD,T,50′ (fit), apparent KD read at 50% totally bound, 37 °C, 20 μM spin probe, EPR binding curve
[7] = FABP5/16-DSA 100/100 μM/μM, 37 °C
[8] = changing the buffer from HEPES to TRIS, pH 7.5
[9] = lowering the pH from 7.5 to 6 in HEPES/NaCl
[10] = FABP3/16-DSA 100/100 μM/μM, 37 °C

T2 sequence (Q01469 whole entry): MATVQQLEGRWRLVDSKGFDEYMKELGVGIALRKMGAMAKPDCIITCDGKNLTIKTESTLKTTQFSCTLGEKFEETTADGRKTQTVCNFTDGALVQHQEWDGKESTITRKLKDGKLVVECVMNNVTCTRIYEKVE
T1 sequence (P15090 whole entry): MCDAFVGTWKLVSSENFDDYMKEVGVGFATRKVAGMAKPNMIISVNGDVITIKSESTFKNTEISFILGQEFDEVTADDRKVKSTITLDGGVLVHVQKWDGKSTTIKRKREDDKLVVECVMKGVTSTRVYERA
T3 sequence (P05413 whole entry): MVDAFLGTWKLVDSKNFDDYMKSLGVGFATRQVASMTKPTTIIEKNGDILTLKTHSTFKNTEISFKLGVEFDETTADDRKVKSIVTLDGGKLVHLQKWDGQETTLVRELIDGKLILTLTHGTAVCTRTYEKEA

Kd (FABP4; 37 °C, 20 μM FABP4, 20 μM spin probe, read-out: KD,T,20μM (calculated, totally bound)): 10 ± 0.75 µM | Kd (FABP4; [3]): 43.6 ± 0.4 µM | Kd (FABP4; 37 °C, 50 μM FABP4, 20 μM spin probe, read-out: KD,T,50μM (calculated, totally bound)): 8.5 ± 4.1 µM | ΔGF−I,100μM (free to intermediately bound) (FABP4; 37 °C, 100 μM FABP4): -6.79 ± 0.22 kcal/mol | ΔGF−T,100μM (free to totally bound) (FABP4; 37 °C, 100 μM FABP4): -6.79 ± 0.22 kcal/mol | Kd (FABP4; 37 °C, 100 μM FABP4, 20 μM spin probe, read-out: KD,T,100μM (calculated, totally bound)): 16.7 ± 0.44 µM | aiso, component (1) free (FABP4; 37 °C, EPR simulation): 44.1 MHz | aiso, component (2) intermediately bound (FABP4; 37 °C, EPR simulation): 44.7–48.0 MHz | τc,iso, component (1) free (FABP4; 37 °C, EPR simulation): 0.05–0.13 ns | τc,iso, component (2) intermediately bound (FABP4; 37 °C, EPR simulation): 4.0–5.8 ns | τc,iso, component (3) strongly bound (FABP4; 37 °C, EPR simulation): 22.2 ns | Hill coefficient n (FABP4; [4]): 1.454 and > 1 | Hill fit k (FABP4; Hill fit, totally bound (T), x = c(FABP4)/c(5/16-DSA)): 0.797 ± 0.047 | Hill fit Vmax (FABP4; [5]): 92.29 ± 2.876 | Kd (FABP4; [6]): 17.8 ± 0.2 µM | bound 16-DSA (FABP5 [1]): 72% | Kd (FABP5 [2]; 37 °C, 20 μM FABP5, 20 μM spin probe, read-out: KD,T,20μM (calculated, totally bound)): 2.14 ± 0.7 µM | Kd (FABP5 [2]; [3]): 22 ± 0.2 µM | Kd (FABP5 [2]; 37 °C, 50 μM FABP5, 20 μM spin probe, read-out: KD,T,50μM (calculated, totally bound)): 5.87 ± 1.21 µM | ΔGF−I,100μM (free to intermediately bound) (FABP5 [2]; 37 °C, 100 μM FABP5): -6.38 ± 0.072 kcal/mol | ΔGF−S,100μM (free to strongly bound) (FABP5 [2]; 37 °C, 100 μM FABP5): -4.64 ± 0.024 kcal/mol | ΔGF−T,100μM (free to totally bound) (FABP5 [2]; 37 °C, 100 μM FABP5): -7.17 ± 0.19 kcal/mol | ΔGI−S,100μM (intermediately to strongly bound) (FABP5 [2]; 37 °C, 100 μM FABP5): 0.956 ± 0.024 kcal/mol | Kd (FABP5 [2]; 37 °C, 100 μM FABP5, 20 μM spin probe, read-out: KD,T,100μM (calculated, totally bound)): 8.9 ± 0.34 µM | aiso, component (1) free (FABP5 [2]; 37 °C, EPR simulation): 44.1 MHz | aiso, component (2) intermediately bound (FABP5 [2]; 37 °C, EPR simulation): 37–42.3 MHz | aiso, component (3) strongly bound (FABP5 [2]; 37 °C, EPR simulation): 37 MHz | τc,iso, component (1) free (FABP5 [2]; 37 °C, EPR simulation): 0.05–0.07 ns | τc,iso, component (2) intermediately bound (FABP5 [2]; 37 °C, EPR simulation): 5.7 ns | τc,iso, component (3) strongly bound (FABP5 [2]; 37 °C, EPR simulation): 22.2 ns | totally bound fraction (FABP5 [2]; 37 °C, high FABP5 excess): 93% | intermediately bound proportion (FABP5 [2]; FABP5/16-DSA 10/10 μM/μM, 37 °C): 61.5% | intermediately bound proportion (FABP5 [2]; FABP5/16-DSA 20/20 μM/μM, 37 °C): 72.2% | intermediately bound proportion (FABP5 [2]; FABP5/16-DSA 50/50 μM/μM, 37 °C): 80.8% | intermediately bound proportion (FABP5 [2]; [7]): 81% | strongly bound component (FABP5 [2]; [7]): 9.5% | increase of intermediately bound component (FABP5 [2]; [8]): 6 to 8% | increase of intermediately bound component (FABP5 [2]; [9]): 16 to 18% | Hill coefficient n (FABP5 [2]; [4]): 0.852 ± 0.04 and < 1 | Hill fit k (FABP5 [2]; Hill fit, totally bound (T), x = c(FABP5)/c(5/16-DSA)): 0.315 ± 0.011 | Hill fit Vmax (FABP5 [2]; [5]): 98.288 ± 1.318 | Kd (FABP5 [2]; [6]): 7.6 ± 0.1 µM | Kd (FABP3; 37 °C, 20 μM FABP3, 20 μM spin probe, read-out: KD,T,20μM (calculated, totally bound)): 1.08 ± 0.55 µM | Kd (FABP3; [3]): 18 ± 0.2 µM | Kd (FABP3; 37 °C, 50 μM FABP3, 20 μM spin probe, read-out: KD,T,50μM (calculated, totally bound)): 0.81 µM | ΔGF−I,100μM (free to intermediately bound) (FABP3; 37 °C, 100 μM FABP3): -8.05 ± 0.598 kcal/mol | ΔGF−S,100μM (free to strongly bound) (FABP3; 37 °C, 100 μM FABP3): -3.13 ± 0.024 kcal/mol | ΔGF−T,100μM (free to totally bound) (FABP3; 37 °C, 100 μM FABP3): -8.96 ± 1.29 kcal/mol | ΔGI−S,100μM (intermediately to strongly bound) (FABP3; 37 °C, 100 μM FABP3): 2.53 ± 0.048 kcal/mol | Kd (FABP3; 37 °C, 100 μM FABP3, 20 μM spin probe, read-out: KD,T,100μM (calculated, totally bound)): 0.48 µM | aiso, component (1) free (FABP3; 37 °C, EPR simulation): 44.1 MHz | aiso, component (2) intermediately bound (FABP3; 37 °C, EPR simulation): 41.6–42.6 MHz | aiso, component (3) strongly bound (FABP3; 37 °C, EPR simulation): 38.7 MHz | τc,iso, component (1) free (FABP3; 37 °C, EPR simulation): 0.04–0.1 ns | τc,iso, component (2) intermediately bound (FABP3; 37 °C, EPR simulation): 5.2–8.4 ns | τc,iso, component (3) strongly bound (FABP3; 37 °C, EPR simulation): 19.1–22.2 ns | intermediately bound proportion (FABP3; FABP3/16-DSA 10/10 μM/μM, 37 °C): 67.1% | intermediately bound proportion (FABP3; FABP3/16-DSA 20/20 μM/μM, 37 °C): 72.6% | intermediately bound proportion (FABP3; FABP3/16-DSA 50/50 μM/μM, 37 °C): 85.9% | intermediately bound proportion (FABP3; [10]): 90.3% | strongly bound component (FABP3; [10]): 2.8% | increase of intermediately bound component (FABP3; [8]): 6 to 8% | increase of intermediately bound component (FABP3; [9]): 16 to 18% | Hill fit k (FABP3; Hill fit, totally bound (T), x = c(FABP3)/c(5/16-DSA)): 0.535 ± 0.005 | Hill fit Vmax (FABP3; [5]): 100.399 ± 0.459 | Kd (FABP3; [6]): 10.6 ± 0.1 µM
Structure (SMILES): CCC1(CCCCCCCCCCCCCCC(=O)O)OCC(C)(C)N1[O] (stereo not drawn) [16-DSA, 16-DOXYL stearic acid]
